Data reported in paper PMC8320704 (Journal of medicinal chemistry, 2015).
Read-outs that look alike come from different tables or passages of the source.

What was measured:
HIV-1 IN (3′-P) = HIV-1 IN (3′-P) (Human immunodeficiency virus type 1 group M subtype B, UniProt P04585); assay: HIV-1 IN gel-based assay, 3′-processing; type: biochemical
HIV-1 RT RNase H = HIV-1 RT RNase H (Human immunodeficiency virus type 1 group M subtype B, UniProt P04585); assay: HIV-1 RT RNase H inhibition; type: biochemical
HIV-1 IN (ST) = HIV-1 IN (ST) (Human immunodeficiency virus type 1 group M subtype B, UniProt P04585); assay: HIV-1 IN gel-based assay, strand transfer; type: biochemical

Compound	SI = CC50/EC50 (HIV-1(IIIB); Table 1)	IC50 (HIV-1 IN (3′-P))	further results
O=C(O)/C(O)=C/C(=O)c1cn(Cc2ccccc2F)c2cc(Cl)ccc2c1=O [11w, 4-[7-Chloro-1-(2-fluorophenyl)methyl-4(1H)-quinolinon-3-yl]-2-hydroxy-4-oxo-2-butenoic Acid]	>2.9		
CCOC(=O)/C(O)=C/C(=O)c1cn(Cc2ccc(F)c(F)c2)c2ccccc2c1=O [10m, 4-[1-(3,4-Difluorophenyl)methyl-4(1H)-quinolinon-3-yl]-2-hydroxy-4-oxo-2-butenoic Acid Ethyl Ester]	>5.1		
CCOC(=O)/C(O)=C/C(=O)c1cn(Cc2ccccc2F)c2cc(Cl)ccc2c1=O [10w, 4-[7-Chloro-1-(2-fluorophenyl)methyl-4(1H)-quinolinon-3-yl]-2-hydroxy-4-oxo-2-butenoic Acid Ethyl Ester]	>4.5		
COc1cccc(Cn2cc(C(=O)/C=C(\O)C(=O)O)c(=O)c3ccccc32)c1 [11e, 4-[1-(3-Methoxyphenyl)methyl-4(1H)-quinolinon-3-yl]-2-hydroxy-4-oxo-2-butenoic Acid]		> 4.1 µM	
O=C(O)/C(O)=C/C(=O)c1cn(Cc2ccc(Cl)cc2)c2ccccc2c1=O [11f, 4-[1-(4-Chlorophenyl)methyl-4(1H)-quinolinon-3-yl]-2-hydroxy-4-oxo-2-butenoic Acid]	>57.5		IC50 (HIV-1 RT RNase H; RNase H IC50, Table 1): > 50 µM; selectivity index (SI) (HIV-1(IIIB)): > 57.5
O=C(O)/C(O)=C/C(=O)c1cn(Cc2ccc3ccccc3c2)c2ccccc2c1=O [11y, 2-Hydroxy-4-(1-(naphthalen-2-ylmethyl)-4-oxo-1,4-dihydroquinolin-3-yl)-4-oxobut-2-enoic Acid]			IC50 (HIV-1 IN (ST)): < 0.45 µM; SI = CC50/EC50 (HIV-1(IIIB); Table 2): >10.4
O=C(O)/C(O)=C/C(=O)c1cn(Cc2cc(F)ccc2F)c2ccccc2c1=O [11k, 4-[1-(2,5-Difluorophenyl)methyl-4(1H)-quinolinon-3-yl]-2-hydroxy-4-oxo-2-butenoic Acid]			IC50 (HIV-1 RT RNase H; RNase H IC50, Table 1): > 50 µM
CCOC(=O)/C(O)=C/C(=O)c1cn(Cc2c(Cl)cccc2Cl)c2ccccc2c1=O [10p, 4-[1-(2,6-Dichlorophenyl)methyl-4(1H)-quinolinon-3-yl]-2-hydroxy-4-oxo-2-butenoic Acid Ethyl Ester]	>1.7		IC50 (HIV-1 RT RNase H; RNase H IC50, Table 1): > 50 µM
O=C(O)/C(O)=C/C(=O)c1cn(Cc2c(F)cccc2F)c2ccccc2c1=O [11l, 4-[1-(2,6-Difluorophenyl)methyl-4(1H)-quinolinon-3-yl]-2-hydroxy-4-oxo-2-butenoic Acid]	>6.2		IC50 (HIV-1 RT RNase H; RNase H IC50, text): ~10 µM
O=C(O)/C(O)=C/C(=O)c1cn(Cc2cccc(F)c2)c2ccccc2c1=O [11d, 4-[1-(3-Fluorophenyl)methyl-4(1H)-quinolinon-3-yl]-2-hydroxy-4-oxo-2-butenoic Acid]	>1.8		
CCOC(=O)/C(O)=C/C(=O)c1cn(Cc2ccccc2F)c2ccccc2c1=O [10b, 4-[1-(2-Fluorophenyl)methyl-4(1H)-quinolinon-3-yl]-2-hydroxy-4-oxo-2-butenoic Acid Ethyl Ester]	>33.4		
CCOC(=O)/C(O)=C/C(=O)c1cn(Cc2ccccc2)c2ccccc2c1=O [10a, 4-[1-Phenylmethyl-4(1H)-quinolinon-3-yl]-2-hydroxy-4-oxo-2-butenoic Acid Ethyl Ester]	>50	> 1000 µM	
O=C(O)/C(O)=C/C(=O)c1cn(Cc2cccc(Cl)c2F)c2ccccc2c1=O [11s, 4-[1-(3-Chloro-2-fluorophenyl)methyl-4(1H)-quinolinon-3-yl]-2-hydroxy-4-oxo-2-butenoic Acid]	>2.1		
COc1ccccc1Cn1cc(C(=O)/C=C(\O)C(=O)O)c(=O)c2ccccc21 [11c, 4-[1-(2-Methoxyphenyl)methyl-4(1H)-quinolinon-3-yl]-2-hydroxy-4-oxo-2-butenoic Acid]	>5.4	> 4.1 µM	
O=C(O)/C(O)=C/C(=O)c1cn(Cc2ccc(F)cc2F)c2ccccc2c1=O [11j, 4-[1-(2,4-Difluorophenyl)methyl-4(1H)-quinolinon-3-yl]-2-hydroxy-4-oxo-2-butenoic Acid]	>3.6		
O=C(O)/C(O)=C/C(=O)c1cn(Cc2cc(F)cc(F)c2)c2ccccc2c1=O [11n, 4-[1-(3,5-Difluorophenyl)methyl-4(1H)-quinolinon-3-yl]-2-hydroxy-4-oxo-2-butenoic Acid]			IC50 (HIV-1 RT RNase H; RNase H IC50, Table 1): > 50 µM
CCOC(=O)/C(O)=C/C(=O)c1cn(Cc2ccc3ccccc3n2)c2ccccc2c1=O [10aa, 2-Hydroxy-4-oxo-4-(4-oxo-1-(quinolin-2-ylmethyl)-1,4-dihydroquinolin-3-yl)but-2-enoic Acid Ethyl Ester]		> 1000 µM	
CCOC(=O)/C(O)=C/C(=O)c1cn(Cc2c(F)cccc2F)c2ccccc2c1=O [10l, 4-[1-(2,6-Difluorophenyl)methyl-4(1H)-quinolinon-3-yl]-2-hydroxy-4-oxo-2-butenoic Acid Ethyl Ester]	>250	> 12.3 µM	selectivity index (SI) (HIV-1(IIIB)): > 250

Compound	SI = CC50/EC50 (HIV-1(IIIB); Table 1)	IC50 (HIV-1 IN (3′-P))	further results
CCOC(=O)/C(O)=C/C(=O)c1cn(Cc2ccccc2OC)c2ccccc2c1=O [10c, 4-[1-(2-Methoxyphenyl)methyl-4(1H)-quinolinon-3-yl]-2-hydroxy-4-oxo-2-butenoic Acid Ethyl Ester]	>19.2	> 333 µM	
O=C(O)/C(O)=C/C(=O)c1cn(Cc2ccccc2F)c2ccccc2c1=O [11b, 4-[1-(2-Fluorophenyl)methyl-4(1H)-quinolinon-3-yl]-2-hydroxy-4-oxo-2-butenoic Acid]	>19.2		IC50 (HIV-1 RT RNase H; RNase H IC50, Table 1): > 50 µM
CCOC(=O)/C(O)=C/C(=O)c1cn(Cc2ccncc2)c2ccccc2c1=O [10z, 2-Hydroxy-4-oxo-4-(4-oxo-1-(pyridin-4-ylmethyl)-1,4-dihydroquinolin-3-yl)but-2-enoic Acid Ethyl Ester]		> 333 µM	
CCOC(=O)/C(O)=C/C(=O)c1cn(Cc2cccc(F)c2)c2ccccc2c1=O [10d, 4-[1-(3-Fluorophenyl)methyl-4(1H)-quinolinon-3-yl]-2-hydroxy-4-oxo-2-butenoic Acid Ethyl Ester]	>29.4	> 12.3 µM	
CCOC(=O)/C(O)=C/C(=O)c1cn(Cc2cccc(Cl)c2F)c2ccccc2c1=O [10s, 4-[1-(3-Chloro-2-fluorophenyl)methyl-4(1H)-quinolinon-3-yl]-2-hydroxy-4-oxo-2-butenoic Acid Ethyl Ester]	>5		
O=C(O)/C(O)=C/C(=O)c1cn(Cc2ccc(O)cc2)c2ccccc2c1=O [11g, 4-[1-(4-Hydroxyphenyl)methyl-4(1H)-quinolinon-3-yl]-2-hydroxy-4-oxo-2-butenoic Acid]		> 37 µM	IC50 (HIV-1 RT RNase H; RNase H IC50, text): ~10 µM
O=C(O)/C(O)=C/C(=O)c1cn(Cc2ccc(F)c(F)c2)c2ccccc2c1=O [11m, 4-[1-(3,4-Difluorophenyl)methyl-4(1H)-quinolinon-3-yl]-2-hydroxy-4-oxo-2-butenoic Acid]	>3.1		IC50 (HIV-1 RT RNase H; RNase H IC50, Table 1): > 50 µM
CCOC(=O)/C(O)=C/C(=O)c1cn(Cc2ccc(O)cc2)c2ccccc2c1=O [10g, 4-[1-(4-Hydroxyphenyl)methyl-4(1H)-quinolinon-3-yl]-2-hydroxy-4-oxo-2-butenoic Acid Ethyl Ester]	>1.6	> 333 µM	
COc1ccc(Cn2cc(C(=O)/C=C(\O)C(=O)O)c(=O)c3ccccc32)cc1 [11h, 4-[1-(4-Methoxyphenyl)methyl-4(1H)-quinolinon-3-yl]-2-hydroxy-4-oxo-2-butenoic Acid]			IC50 (HIV-1 RT RNase H; RNase H IC50, Table 1): > 50 µM
CCOC(=O)/C(O)=C/C(=O)c1cn(CCCCc2ccccc2)c2ccccc2c1=O [10x, 2-Hydroxy-4-oxo-4-(4-oxo-1-(4-phenylbutyl)-1,4-dihydroquinolin-3-yl)but-2-enoic Acid Ethyl Ester]		> 333 µM	
CCOC(=O)/C(O)=C/C(=O)c1cn(Cc2ccc(F)c(Cl)c2)c2ccccc2c1=O [10t, 4-[1-(3-Chloro-4-fluorophenyl)methyl-4(1H)-quinolinon-3-yl]-2-hydroxy-4-oxo-2-butenoic Acid Ethyl Ester]	>2.9		
CCOC(=O)/C(O)=C/C(=O)c1cn(Cc2ccc(F)c(Cl)c2)c2c(Cl)cccc2c1=O [10u, 8-Chloro-4-[1-(3-chloro-4-fluorophenyl)methyl-4(1H)-quinolinon-3-yl]-2-hydroxy-4-oxo-2-butenoic Acid Ethyl Ester]		> 333 µM	
CCOC(=O)/C(O)=C/C(=O)c1cn(Cc2cc(F)cc(F)c2)c2ccccc2c1=O [10n, 4-[1-(3,5-Difluorophenyl)methyl-4(1H)-quinolinon-3-yl]-2-hydroxy-4-oxo-2-butenoic Acid Ethyl Ester]	>1.5		
CCOC(=O)/C(O)=C/C(=O)c1cn(Cc2ccc(F)cc2F)c2ccccc2c1=O [10j, 4-[1-(2,4-Difluorophenyl)methyl-4(1H)-quinolinon-3-yl]-2-hydroxy-4-oxo-2-butenoic Acid Ethyl Ester]	>86.2		selectivity index (SI) (HIV-1(IIIB)): > 86.2
O=C(O)/C(O)=C/C(=O)c1cn(Cc2ccccc2F)c2c(Cl)cccc2c1=O [11v, 8-Chloro-4-[1-(2-fluorophenyl)methyl-4(1H)-quinolinon-3-yl]-2-hydroxy-4-oxo-2-butenoic Acid]			IC50 (HIV-1 RT RNase H; RNase H IC50, Table 1): > 50 µM
CCOC(=O)/C(O)=C/C(=O)c1cn(Cc2ccc3ccccc3c2)c2ccccc2c1=O [10y, 2-Hydroxy-4-(1-(naphthalen-2-ylmethyl)-4-oxo-1,4-dihydroquinolin-3-yl)-4-oxobut-2-enoic Acid Ethyl Ester]		> 333 µM	
O=C(O)/C(O)=C/C(=O)c1cn(Cc2ccncc2)c2ccccc2c1=O [11z, 2-Hydroxy-4-oxo-4-(4-oxo-1-(pyridin-4-ylmethyl)-1,4-dihydroquinolin-3-yl)but-2-enoic Acid]		> 1000 µM	
CCOC(=O)/C(O)=C/C(=O)c1cn(Cc2cccc(OC)c2)c2ccccc2c1=O [10e, 4-[1-(3-Methoxyphenyl)methyl-4(1H)-quinolinon-3-yl]-2-hydroxy-4-oxo-2-butenoic Acid Ethyl Ester]		> 333 µM	
